Values quoted from earlier work as cited in patent US7862843B2 (priority 2004, dated 2011).

Columns and labels:
[1] = tested on: prions
[2] = tested on: prions; remark: listed apart in the source

SMILES	Inactivating the infectivity of prions [1]	Infectivity lost ([2]; 1,000 ppm available chlorine, 4-16 hour exposure)	Inactivation of prions on surfaces ([2]; full strength, 20,000-50,000 ppm)
CC(C)=O [acetone]	ineffective		
O=C1CCO1 [beta-propiolactone]	ineffective		
CCO [ethanol]	ineffective		
C1CO1 [ethylene oxide]	ineffective		
C=O [formalin]	ineffective		
[Na+].[O-]Cl [hypochlorite, sodium hypochlorite]		10^4-10^5 units of infectivity	effective
